For 21 molecules, IC50 results are on record in US11826351B2, “Compounds useful as kinase inhibitors” (Loxo Oncology, Inc., priority 2015, dated 2023).

The structures appear in SMILES notation.

Experiment [1] concerns OCI-Ly10 human DLBCL cells. The experiment is described as follows: OCI-Ly10 anti-proliferative activity (Resazurin). It counts as cell-based. Particulars: Homo sapiens, OCI-Ly10, 72 h, OCI-Ly10 cells, 72 h compound treatment, Resazurin; read-out: Proliferation Assay OCI-Ly10-20% FBS. Put shortly:
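OCI-Ly10 human DLBCL cells, whose growth depends on NFκB signalling, were seeded at 7.5×10^3 cells per well in 96-well plates with a range of compound concentrations and kept at 37° C for 72 h. Resazurin was then added, and after 5 h fluorescence was read at 590 nm.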
(Alamar Blue is a resazurin reagent that responds to reducing activity.)

Another experiment concerns the target T1, Recombinant EGFR (Homo sapiens, UniProt P00533).
T1 construct: purchased Invitrogen
Put plainly: EGFR binding affinity (LanthaScreen TR-FRET). The settings on record: Kinase Tracer 199, 5 h incubation. The gist of the method: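 TR-FRET binding (LanthaScreen) with recombinant EGFR; signal measured across a compound concentration range. IC50 obtained by fitting RFU against log[inhibitor] to a variable-slope model.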
(In general: In TR-FRET formats the signal depends on donor and acceptor labels being close together.)

Experiment [2] deals with T2, Recombinant BTK^WT kinase (Homo sapiens, UniProt Q06187).
T2 construct: purchased Invitrogen
Put plainly: BTK WT binding affinity (LanthaScreen TR-FRET). Particulars: Kinase Tracer 236, 5 h incubation. The gist of the method:
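Tracer-displacement TR-FRET: 2.5 nM recombinant BTK^WT, 2 nM Eu anti-His antibody and 15 nM Kinase Tracer 236 incubated with varying inhibitor concentrations for 5 h in Kinase Buffer A. Signal read at 340 nm excitation, 615/665 nm emission; IC50 from variable-slope log[inhibitor]–response fit.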

The target in experiment [3] is T3, Recombinant BTK^C481S kinase (Homo sapiens, UniProt Q06187, C481S).
T3 construct: purchased SignalChem
The experiment is described as follows: BTK C481S binding affinity (LanthaScreen TR-FRET). The settings on record: Kinase Tracer 236, 5 h incubation. The gist of the method:
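BTK C481S tracer-displacement TR-FRET: 5 nM His-tagged kinase, 2 nM Eu anti-His antibody and 30 nM Kinase Tracer 236 incubated with titrated inhibitor for 5 h in Kinase Buffer A. Read at 340 nm excitation, 615/665 nm emission; IC50 from variable-slope log[inhibitor]–response fit.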

T3 sequence (Q06187 whole entry C481S): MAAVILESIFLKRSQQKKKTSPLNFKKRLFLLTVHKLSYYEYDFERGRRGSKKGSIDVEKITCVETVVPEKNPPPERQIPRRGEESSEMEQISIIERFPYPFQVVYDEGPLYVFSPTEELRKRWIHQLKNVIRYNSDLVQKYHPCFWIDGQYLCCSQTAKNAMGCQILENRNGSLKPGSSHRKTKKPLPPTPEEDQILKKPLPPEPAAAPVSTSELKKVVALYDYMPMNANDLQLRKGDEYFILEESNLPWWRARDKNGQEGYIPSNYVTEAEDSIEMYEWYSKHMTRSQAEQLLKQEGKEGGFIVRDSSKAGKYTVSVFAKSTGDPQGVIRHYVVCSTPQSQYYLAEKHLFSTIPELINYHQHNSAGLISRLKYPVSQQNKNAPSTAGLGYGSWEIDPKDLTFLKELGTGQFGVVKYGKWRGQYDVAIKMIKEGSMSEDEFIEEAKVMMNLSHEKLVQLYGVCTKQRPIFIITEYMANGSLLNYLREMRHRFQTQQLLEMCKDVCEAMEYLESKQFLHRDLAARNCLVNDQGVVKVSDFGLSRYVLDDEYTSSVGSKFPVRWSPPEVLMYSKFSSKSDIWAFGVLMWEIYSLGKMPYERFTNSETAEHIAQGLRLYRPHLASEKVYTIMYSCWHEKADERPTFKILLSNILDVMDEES
T1 sequence (P00533 25-1210): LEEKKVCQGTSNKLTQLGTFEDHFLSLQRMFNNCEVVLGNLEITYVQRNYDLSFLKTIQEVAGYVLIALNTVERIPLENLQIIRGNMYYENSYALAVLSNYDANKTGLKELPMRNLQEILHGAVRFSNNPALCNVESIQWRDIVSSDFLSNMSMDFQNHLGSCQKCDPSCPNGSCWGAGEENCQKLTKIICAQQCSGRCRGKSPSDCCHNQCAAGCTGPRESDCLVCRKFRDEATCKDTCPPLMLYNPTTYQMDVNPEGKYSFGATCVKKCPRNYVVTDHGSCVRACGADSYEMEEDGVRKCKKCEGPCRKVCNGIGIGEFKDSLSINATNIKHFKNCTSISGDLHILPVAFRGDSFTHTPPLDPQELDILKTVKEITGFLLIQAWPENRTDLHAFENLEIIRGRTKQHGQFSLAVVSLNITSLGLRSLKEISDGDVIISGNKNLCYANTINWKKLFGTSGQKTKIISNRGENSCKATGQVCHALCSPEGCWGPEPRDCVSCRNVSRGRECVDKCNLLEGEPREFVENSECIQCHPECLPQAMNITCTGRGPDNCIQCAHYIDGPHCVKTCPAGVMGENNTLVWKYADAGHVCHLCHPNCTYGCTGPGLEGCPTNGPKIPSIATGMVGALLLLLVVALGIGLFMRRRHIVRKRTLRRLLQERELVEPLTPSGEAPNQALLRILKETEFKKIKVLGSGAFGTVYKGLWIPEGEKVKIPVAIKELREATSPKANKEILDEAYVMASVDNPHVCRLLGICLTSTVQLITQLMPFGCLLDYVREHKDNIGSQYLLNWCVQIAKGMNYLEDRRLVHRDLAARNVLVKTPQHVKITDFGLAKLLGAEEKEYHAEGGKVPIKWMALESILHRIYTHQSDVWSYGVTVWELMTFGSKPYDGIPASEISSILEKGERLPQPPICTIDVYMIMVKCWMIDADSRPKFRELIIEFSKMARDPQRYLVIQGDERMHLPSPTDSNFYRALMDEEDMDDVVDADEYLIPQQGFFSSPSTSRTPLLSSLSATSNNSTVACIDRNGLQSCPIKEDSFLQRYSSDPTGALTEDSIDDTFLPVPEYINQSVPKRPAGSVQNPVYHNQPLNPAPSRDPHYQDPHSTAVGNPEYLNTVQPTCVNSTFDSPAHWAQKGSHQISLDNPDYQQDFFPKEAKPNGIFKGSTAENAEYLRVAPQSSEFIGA
T2 sequence (Q06187 whole entry): as the sequence (Q06187 whole entry C481S) above, with S481C counted along it

Consider `COc1ccc(F)cc1C(=O)NCc1ccc(-c2nn(C3CCCOC3)c(N)c2C(N)=O)cc1F` (stereo not drawn) [Example 127, 5-amino-3-[3-fluoro-4-[[(5-fluoro-2-methoxy-benzoyl)amino]methyl]phenyl]-1-tetrahydropyran-3-yl-pyrazole-4-carboxamide], for which the IC50 is 0.01 to 0.1 µM in experiment [1], 1 to 10 µM at Recombinant EGFR, under 0.01 µM in experiment [2] and under 0.01 µM in experiment [3].

Regarding `COc1ccccc1C(=O)NCc1ccc(-c2nn(CC3(C)COC3)c(N)c2C(N)=O)cc1` [Example 8, 5-amino-3-[4-[[(2-methoxybenzoyl)amino]methyl]phenyl]-1-[(3-methyloxetan-3-yl)methyl]pyrazole-4-carboxamide], the IC50 in experiment [1] was 0.1 to 1 µM; on Recombinant EGFR it was over 10 µM; in experiment [2], 0.1 to 1 µM; in experiment [3], 0.01 to 0.1 µM.

Take `COc1ccc(F)cc1C(=O)NCc1ccc(-c2nn(C(C)C3CCOC3)c(N)c2C(N)=O)cc1` (mixture of isomers) [Example 172, 5-amino-3-[4-[[(5-fluoro-2-methoxy-benzoyl)amino]methyl]phenyl]-1-(1-tetrahydrofuran-3-ylethyl)pyrazole-4-carboxamide]: the IC50 is 0.1 to 1 µM in experiment [1], 1 to 10 µM at Recombinant EGFR, under 0.01 µM in experiment [2] and under 0.01 µM in experiment [3].

In the case of `COc1ccccc1C(=O)NCc1ccc(-c2nn([C@H]3CCOC3)c(N)c2C(N)=O)cc1` [Example 83a, 5-amino-3-[4-[[(2-methoxybenzoyl)amino]methyl]phenyl]-1-[(3S)-tetrahydrofuran-3-yl]pyrazole-4-carboxamide], the IC50 is 0.1 to 1 µM in experiment [1], 1 to 10 µM on Recombinant EGFR, under 0.01 µM in experiment [2] and under 0.01 µM in experiment [3].

Turning to `COc1ccccc1C(=O)NCc1ccc(-c2nn(-c3cccc(C)c3)c(N)c2C(N)=O)cc1` [Example 50, 5-amino-3-[4-[[(2-methoxybenzoyl)amino]methyl]phenyl]-1-(m-tolyl)pyrazole-4-carboxamide], the IC50 was 0.01 to 0.1 µM in experiment [1], 0.1 to 1 µM on Recombinant EGFR, under 0.01 µM in experiment [2] and under 0.01 µM in experiment [3].

Regarding `COc1ccccc1C(=O)NCc1ccc(-c2nn(C3CCC3)c(N)c2C(N)=O)cc1` [Example 35, 5-Amino-1-cyclobutyl-3-[4-[[(2-methoxybenzoyl)amino]methyl]phenyl]pyrazole-4-carboxamide], the IC50 is 0.01 to 0.1 µM in experiment [1], 1 to 10 µM at Recombinant EGFR, under 0.01 µM in experiment [2] and under 0.01 µM in experiment [3].

As to `COc1ccccc1C(=O)NCc1ccc(-c2nn(CCC#N)c(N)c2C(N)=O)cc1` [Example 11, 5-Amino-1-(2-cyanoethyl)-3-[4-[[(2-methoxybenzoyl)amino]methyl]phenyl]pyrazole-4-carboxamide], the IC50 lay within 1 to 10 µM in experiment [1], 1 to 10 µM on Recombinant EGFR, 0.01 to 0.1 µM in experiment [2] and 0.01 to 0.1 µM in experiment [3].

As to `CCn1nc(-c2ccc(CNC(=O)c3cc(F)ccc3OC)cc2)c(C(N)=O)c1N` [Example 195, 5-amino-1-ethyl-3-[4-[[(5-fluoro-2-methoxy-benzoyl)amino]methyl]phenyl]pyrazole-4-carboxamide], the IC50 in experiment [1] is 0.01 to 0.1 µM; on Recombinant EGFR, 1 to 10 µM; in experiment [2], under 0.01 µM; in experiment [3], under 0.01 µM.

As to `COc1ccc(F)cc1C(=O)NCc1ccc(-c2nn(C(C)C(F)F)c(N)c2C(N)=O)cc1` (stereo not drawn) [Example 173, 5-amino-1-(2,2-difluoro-1-methyl-ethyl)-3-[4-[[(5-fluoro-2-methoxy-benzoyl)amino]methyl]phenyl]pyrazole-4-carboxamide], the IC50 in experiment [1] is 0.01 to 0.1 µM; at Recombinant EGFR it was 1 to 10 µM; in experiment [2], under 0.01 µM; in experiment [3] it was under 0.01 µM.

With `COc1ccc(F)cc1C(=O)NCc1ccc(-c2nn(C(c3ccccc3)C(F)(F)F)c(N)c2C(N)=O)cc1` (stereo not drawn) [Example 178, 5-Amino-3-[4-[[(5-fluoro-2-methoxy-benzoyl)amino]methyl]phenyl]-1-(2,2,2-trifluoro-1-phenyl-ethyl)pyrazole-4-carboxamide], the IC50 in experiment [1] was 0.01 to 0.1 µM; at Recombinant EGFR it was 1 to 10 µM; in experiment [2], 0.01 to 0.1 µM; in experiment [3], under 0.01 µM.

On to `COc1ccccc1C(=O)NCc1ccc(-c2nn(C3CCCC3)c(N)c2C(N)=O)cn1` [Example 134, 5-amino-1-cyclopentyl-3-[6-[[(2-methoxybenzoyl)amino]methyl]-3-pyridyl]pyrazole-4-carboxamide], for which the IC50 in experiment [1] was 1 to 10 µM; on Recombinant EGFR, over 10 µM; in experiment [2], 0.01 to 0.1 µM; in experiment [3], 0.01 to 0.1 µM.

For `COc1ccccc1C(=O)NCc1ccc(-c2nn(C3CNCC3(F)F)c(N)c2C(N)=O)cc1F` (stereo not drawn) [Example 160, 5-amino-1-(4,4-difluoropyrrolidin-3-yl)-3-[3-fluoro-4-[[(2-methoxybenzoyl)amino]methyl]phenyl]pyrazole-4-carboxamide], the IC50 in experiment [1] was 0.1 to 1 µM; at Recombinant EGFR it was 1 to 10 µM; in experiment [2], 0.01 to 0.1 µM; in experiment [3] it was under 0.01 µM.

Regarding `COc1ccccc1C(=O)NCc1ccc(-c2nn(-c3ccccn3)c(N)c2C(N)=O)cc1` [Example 53, 5-amino-3-[4-[[(2-methoxybenzoyl)amino]methyl]phenyl]-1-(2-pyridyl)pyrazole-4-carboxamide], the IC50 in experiment [1] was 0.01 to 0.1 µM; at Recombinant EGFR, 0.1 to 1 µM; in experiment [2], under 0.01 µM; in experiment [3], under 0.01 µM.

As for `COc1ccc(F)cc1C(=O)NCc1ccc(-c2nn(C3CCCC3)c(N)c2C(N)=O)cc1F` [Example 76, 5-amino-1-cyclopentyl-3-[3-fluoro-4-[[(5-fluoro-2-methoxy-benzoyl)amino]methyl]phenyl]pyrazole-4-carboxamide], the IC50 is 0.01 to 0.1 µM in experiment [1], 0.1 to 1 µM at Recombinant EGFR, under 0.01 µM in experiment [2] and under 0.01 µM in experiment [3].

Consider `COc1ccccc1C(=O)NCc1ccc(-c2nn(C3CC(=O)c4ccccc43)c(N)c2C(N)=O)cc1` (stereo not drawn) [Example 59, 5-amino-3-[4-[[(2-methoxybenzoyl)amino]methyl]phenyl]-1-(3-oxoindan-1-yl)pyrazole-4-carboxamide], for which the IC50 in experiment [1] was 0.01 to 0.1 µM; on Recombinant EGFR, 1 to 10 µM; in experiment [2], under 0.01 µM; in experiment [3], under 0.01 µM.

Take `COc1ccccc1C(=O)NCc1ccc(-c2nn(C3CCOC3)c(N)c2C(N)=O)cc1F` (stereo not drawn) [Example 109, 5-amino-3-[3-fluoro-4-[[(2-methoxybenzoyl)amino]methyl]phenyl]-1-tetrahydrofuran-3-yl-pyrazole-4-carboxamide]: the IC50 in experiment [1] was 0.1 to 1 µM; on Recombinant EGFR, 1 to 10 µM; in experiment [2], under 0.01 µM; in experiment [3], under 0.01 µM.

For the molecule `COc1ccccc1C(=O)NCc1ccc(-c2nn(-c3ccc(F)c(F)c3)c(N)c2C(N)=O)cc1` [Example 98, 5-amino-1-(3,4-difluorophenyl)-3-[4-[[(2-methoxybenzoyl)amino]methyl]phenyl]pyrazole-4-carboxamide], the IC50 is 0.1 to 1 µM in experiment [1], 1 to 10 µM on Recombinant EGFR, under 0.01 µM in experiment [2] and under 0.01 µM in experiment [3].

As to `COc1ccccc1C(=O)NCc1ccc(-c2nn(C3CCCC3)c(N)c2C(N)=O)c(F)c1F` [Example 155, 5-amino-1-cyclopentyl-3-[2,3-difluoro-4-[[(2-methoxybenzoyl)amino]methyl]phenyl]pyrazole-4-carboxamide], the IC50 in experiment [1] was 0.01 to 0.1 µM; on Recombinant EGFR, 1 to 10 µM; in experiment [2] it was under 0.01 µM; in experiment [3], under 0.01 µM.

Consider `COc1ccc(F)cc1C(=O)NCc1ccc(-c2nn(C(C)C(F)(F)F)c(N)c2C(N)=O)cc1F` (stereo not drawn) [Example 177, 5-amino-3-[3-fluoro-4-[[(5-fluoro-2-methoxy-benzoyl)amino]methyl]phenyl]-1-(2,2,2-trifluoro-1-methyl-ethyl)pyrazole-4-carboxamide], for which the IC50 in experiment [1] was 0.01 to 0.1 µM; on Recombinant EGFR it was 1 to 10 µM; in experiment [2], under 0.01 µM; in experiment [3], under 0.01 µM.

Turning to `COc1ccc(F)cc1C(=O)NCc1ccc(-c2nn([C@@H]3CCCOC3)c(N)c2C(N)=O)cc1` [Example 183, 5-amino-3-[4-[[(5-fluoro-2-methoxy-benzoyl)amino]methyl]phenyl]-1-[(3R)-tetrahydropyran-3-yl]pyrazole-4-carboxamide], the IC50 in experiment [1] was 0.1 to 1 µM; at Recombinant EGFR, 1 to 10 µM; in experiment [2], under 0.01 µM; in experiment [3], under 0.01 µM.

Consider `COc1ccccc1C(=O)NCc1ccc(-c2nn(-c3ccccc3)c(N)c2C(N)=O)cc1` [Example 22, 5-Amino-3-[4-[[(2-methoxybenzoyl)amino]methyl]phenyl]-1-phenyl-pyrazole-4-carboxamide], for which the IC50 in experiment [1] was 0.01 to 0.1 µM; at Recombinant EGFR it was 1 to 10 µM; in experiment [2], under 0.01 µM; in experiment [3], under 0.01 µM.
